Experimental data taken from patent US20150297552A1, “FERTILITY ENHANCING AGENT” (OCTAPAM LIMITED, priority 2012, published 2015).

Experiments:
[1] = Solubility character of the agents; format: physicochemical
Wistar rats [2] = experiment: Reproductive function study, agents administered to male rats (Example 1); format: in vivo, rat; conditions: for Amount of gestation female rats / Fertility index / Gestation index / Amount of embryonate female rats: administered to male rats; for Amount of embryonate female rats: of 20 females housed with males; for Amount of babies delivered by 1 female / Post-implantation loss / Postnatal loss after 3 weeks / Pre-implantation loss / Weight of newborn baby rats / Dynamics of babies' body weight, 1st week / Dynamics of babies' body weight, 2nd week / Dynamics of babies' body weight, 3rd week / Dynamics of babies' body weight, 4th week / Craniocaudal size of fetus / Fetus weight / Amount of dead fetuses / Amount of implantation sites / Amount of resorptions / Amount of viable fetuses / Amount of yellow bodies: 10 weeks; for Craniocaudal size of fetus / Fetus weight: 20th day of gestation; for Amount of dead fetuses / Amount of implantation sites / Amount of resorptions / Amount of viable fetuses / Amount of yellow bodies: females sacrificed on 20th day of gestation
Experimental: 180 male and female Wistar rats were tested in the 110 experiments (initial body weight—180-200 g).
Group of 60 male rats was grouped into 6 subgroups each including 10 animals. Each group was treated as follows: group 1—vegetable oil, group 2—β-cyclodextrin, group 3—the agent of present invention, 0.35 mg/kg (the prototype agent), group 4—medication, 0.70 mg/kg (the prototype agent), group 5—the agent of present invention in a clathrate complex, 0.35 mg/kg, group 6—the agent of present invention in a clathrate complex, 0.70 mg/kg.
Male rats of the study subgroups were intragastrically given the above mentioned doses of the prototype agent and the agent of present invention in the clathrate complex form daily during 10 weeks (2-3 cycles of spermatozoa maturation). At the same time, animals of control groups were treated with corresponding amounts of placebo consisting of the vegetable oil or β-cyclodextrin. The placebo was chosen based on the fact that the prototype agent is an oil-soluble compound and the agent of present invention in the clathrate complex form is a water soluble compound. The drugs were administered once daily (at 10 a.m.).
After completion of dosing 6 groups of animals were formed: • the first (vegetable oil)—20 control female rats were housed together with 10 control male rats; the second (β-cyclodextrin)—20 control female rats were housed together with 10 control male rats; the third (the prototype agent, 0.35 mg/kg)—20 study female rats housed together with 10 control male rats; • the fourth (the prototype, 0.70 mg/kg)—20 control female rats were housed together with 10 study male rats; • the fifth (the agent of present invention in the clathrate complex form 0.35 mg/kg)—20 study female rats were housed together with 10 control male rats; • the sixth (the agent of present invention in the clathrate complex form 0.70 mg/kg)—20 control female rats were housed together with 10 study male rats.
During two estrous cycles, vaginal smear preparations were analyzed. Proestrus, estrus and metaestrum phases were detected. Presence of spermatozoa in vaginal smear preparations was registered as the first day of gestation. After 10 days, two subgroups of gestation female rats were formed from female rats in each of […] groups. Female rats of the first subgroups were sacrificed on 20th day of gestation. Amount of fetuses, resorption, implantation sites in the uterine cavity and yellow bodies of ovary were counted. Based on the obtained data, pre-implantation and post-implantation fetal death indexes were calculated according to the following equation: […]
where N1—amount of yellow bodies, N2—amount of implantation sites
where N1—amount of implantation sites N2—amount of viable fetuses.
Further, fertility index (ratio between the amount of female rats housed together with male rats to the amount of female rats having spermatozoa in vaginal smear preparations) and gestation index (ratio between the amount of female rats having spermatozoa in vaginal smear preparations to the amount of animals with full-term pregnancy):
where N1—amount of embryonate female rats N2—amount female rats housed together with male rats
where N1—amount of gestation female rats N2—amount of embryonate female rats Pathological changes (subcutaneous hematomas and edemas, developmental defects of skeletal system and eye globes) were registered.
The second groups of gestation female rats were allowed to parturiate under monitoring. Animals were weighed weekly and weight gain was registered. Parturition date, amount of babies in the brood and weight of babies were recorded. On 21st day after parturition, the survival rate and total and median weight of babies were measured.

Wistar rats [3] = experiment: Reproductive function study, agents administered to male rats and female rats separately (Example 2); format: in vivo, rat; conditions: for Amount of embryonate female rats: of 20 added females; for Amount of babies delivered by 1 female / Amount of dead fetuses / Amount of gestation female rats / Amount of implantation sites / Amount of resorptions / Amount of viable fetuses / Amount of yellow bodies / Carniocaudal size of fetus / Fertility index / Fetus body weight / Gestation index / Post-implantation loss / Postnatal loss after 3 weeks / Pre-implantation loss / Weight of newborn baby rats / Dynamics of infant body weight, 1st week / Dynamics of infant body weight, 2nd week / Dynamics of infant body weight, 3rd week / Dynamics of infant body weight, 4th week: 0.35 mg/kg
Experimental: 180 male and female Wistar rats were studied in the experiments (initial body weight—180-200 g). The prototype agent and the agent of present invention in the clathrate complex form were administered intragastrically in amount of 0.35 mg/kg. Female group of 120 animals was broken into two subgroups: control group (80 animals) and study group (40 animals). The prototype agent and the agent of present invention in the clathrate complex form were intragastrically administered to female rats of study group once a day during 2 weeks (3-4 estrous cycles). Male group of 60 animals was broken into two subgroups: control group (40 animals) and study group (20 animals). The prototype agent and the agent of present invention in the clathrate complex form were intragastrically administered to male rats of study group daily during 10 weeks (2-3 cycles of spermatozoa maturation). Corresponding amounts of placebo comprised of vegetable oil or β-cyclodextrin were administered to animals of the control group with the same intervals. The placebo was chosen based on the fact that the prototype agent is an oil-soluble compound and the agent of present invention in the clathrate complex form is a water soluble compound. The drugs were administered once daily (at 10 a.m.).
After administering the medication 6 groups of animals were formed: • the first (vegetable oil)—20 control female rats were housed together with 10 control male rats; • the second (β-cyclodextrin)—20 control female rats were housed together with 10 control male rats; • the third (the prototype, 0.35 mg/kg)—20 study female rats were housed together with 10 control male rats; • the fourth (the prototype, 0.35 mg/kg)—20 control female rats were housed together with 10 study male rats; • the fifth (the agent of present invention in the clathrate complex form 0.35 mg/kg)—20 study female rats were housed together with 10 control male rats; • the sixth (the agent of present invention in the clathrate complex form 0.35 mg/kg)—20 control female rats were housed together with 10 study male rats.
A pre- and post-implantation fetal death indexes, fertility index and gestation index were calculated according to equations cited in Example 1.

[4] = 0.35 mg/kg intragastrically daily during 10 weeks
[5] = 0.70 mg/kg intragastrically daily during 10 weeks
[6] = administered to female rats, 2 weeks
[7] = administered to male rats, 10 weeks

c1ccc(C2C3=C(CCCC3)[Se]C3=C2CCCC3)cc1 [Prototype agent, 9-phenyl-sym-octahydroselenoxanthene]
Solubility (oil-soluble / water soluble) [1]: oil-soluble | Amount of gestation female rats (Wistar rats [2]; [4]): 13 | Fertility index (Wistar rats [2]; [4]): 80% | Gestation index (Wistar rats [2]; [4]): 81% | Amount of embryonate female rats (Wistar rats [2]; [4]): 16 | Amount of gestation female rats (Wistar rats [2]; [5]): 14 | Fertility index (Wistar rats [2]; [5]): 85% | Gestation index (Wistar rats [2]; [5]): 82% | Amount of embryonate female rats (Wistar rats [2]; [5]): 17 | Amount of babies delivered by 1 female (Wistar rats [2]; male rats 0.35 mg/kg): 9.2 ± 1.1 | Post-implantation loss (Wistar rats [2]; male rats 0.35 mg/kg): 5.3% | Postnatal loss after 3 weeks (Wistar rats [2]; male rats 0.35 mg/kg): 2.8% | Pre-implantation loss (Wistar rats [2]; male rats 0.35 mg/kg): 5.1% | Weight of newborn baby rats (Wistar rats [2]; male rats 0.35 mg/kg): 5.7 ± 0.9 g | Dynamics of babies' body weight, 1st week (Wistar rats [2]; male rats 0.35 mg/kg): 19.2 ± 1.1 g | Dynamics of babies' body weight, 2nd week (Wistar rats [2]; male rats 0.35 mg/kg): 25.2 ± 1.6 g | Dynamics of babies' body weight, 3rd week (Wistar rats [2]; male rats 0.35 mg/kg): 45.7 ± 1.2 g | Dynamics of babies' body weight, 4th week (Wistar rats [2]; male rats 0.35 mg/kg): 60.4 ± 1.9 g | Craniocaudal size of fetus (Wistar rats [2]; male rats 0.35 mg/kg): 33 ± 2 mm | Fetus weight (Wistar rats [2]; male rats 0.35 mg/kg): 3.3 ± 0.2 g | Amount of dead fetuses (Wistar rats [2]; male rats 0.35 mg/kg): 0 | Amount of implantation sites (Wistar rats [2]; male rats 0.35 mg/kg): 13.1 ± 1.0 | Amount of resorptions (Wistar rats [2]; male rats 0.35 mg/kg): 0.6 ± 0.2 | Amount of viable fetuses (Wistar rats [2]; male rats 0.35 mg/kg): 12.4 ± 0.8 | Amount of yellow bodies (Wistar rats [2]; male rats 0.35 mg/kg): 13.8 ± 1.2 | Amount of babies delivered by 1 female (Wistar rats [2]; male rats 0.70 mg/kg): 9.0 ± 1.2 | Post-implantation loss (Wistar rats [2]; male rats 0.70 mg/kg): 4.8% | Postnatal loss after 3 weeks (Wistar rats [2]; male rats 0.70 mg/kg): 2.8% | Pre-implantation loss (Wistar rats [2]; male rats 0.70 mg/kg): 5.3% | Weight of newborn baby rats (Wistar rats [2]; male rats 0.70 mg/kg): 5.8 ± 1.0 g | Dynamics of babies' body weight, 1st week (Wistar rats [2]; male rats 0.70 mg/kg): 19.1 ± 0.8 g | Dynamics of babies' body weight, 2nd week (Wistar rats [2]; male rats 0.70 mg/kg): 25.3 ± 1.2 g | Dynamics of babies' body weight, 3rd week (Wistar rats [2]; male rats 0.70 mg/kg): 44.7 ± 1.5 g | Dynamics of babies' body weight, 4th week (Wistar rats [2]; male rats 0.70 mg/kg): 59.8 ± 2.4 g | Craniocaudal size of fetus (Wistar rats [2]; male rats 0.70 mg/kg): 33 ± 1 mm | Fetus weight (Wistar rats [2]; male rats 0.70 mg/kg): 3.3 ± 0.1 g | Amount of dead fetuses (Wistar rats [2]; male rats 0.70 mg/kg): 0 | Amount of implantation sites (Wistar rats [2]; male rats 0.70 mg/kg): 12.5 ± 1.0 | Amount of resorptions (Wistar rats [2]; male rats 0.70 mg/kg): 0.5 ± 0.2 | Amount of viable fetuses (Wistar rats [2]; male rats 0.70 mg/kg): 11.9 ± 0.7 | Amount of yellow bodies (Wistar rats [2]; male rats 0.70 mg/kg): 13.2 ± 0.9 | Amount of embryonate female rats (Wistar rats [3]; administered to female rats, 0.35 mg/kg intragastrically once a day during 2 weeks): 16 | Amount of babies delivered by 1 female (Wistar rats [3]; [6]): 8.6 ± 0.9 | Amount of dead fetuses (Wistar rats [3]; [6]): 0 | Amount of gestation female rats (Wistar rats [3]; [6]): 14 | Amount of implantation sites (Wistar rats [3]; [6]): 9.9 ± 0.6 | Amount of resorptions (Wistar rats [3]; [6]): 0.4 ± 0.2 | Amount of viable fetuses (Wistar rats [3]; [6]): 9.2 ± 1.1 | Amount of yellow bodies (Wistar rats [3]; [6]): 10.7 ± 0.7 | Carniocaudal size of fetus (Wistar rats [3]; [6]): 35 ± 2 mm | Fertility index (Wistar rats [3]; [6]): 80% | Fetus body weight (Wistar rats [3]; [6]): 3.4 ± 0.2 g | Gestation index (Wistar rats [3]; [6]): 88% | Post-implantation loss (Wistar rats [3]; [6]): 7.1% | Postnatal loss after 3 weeks (Wistar rats [3]; [6]): 2.5% | Pre-implantation loss (Wistar rats [3]; [6]): 7.5% | Weight of newborn baby rats (Wistar rats [3]; [6]): 6.2 ± 0.9 g | Dynamics of infant body weight, 1st week (Wistar rats [3]; [6]): 18.8 ± 1.2 g | Dynamics of infant body weight, 2nd week (Wistar rats [3]; [6]): 26.3 ± 1.5 g | Dynamics of infant body weight, 3rd week (Wistar rats [3]; [6]): 47.4 ± 2.0 g | Dynamics of infant body weight, 4th week (Wistar rats [3]; [6]): 61.5 ± 2.8 g | Amount of embryonate female rats (Wistar rats [3]; administered to male rats, 0.35 mg/kg intragastrically daily during 10 weeks): 17 | Amount of babies delivered by 1 female (Wistar rats [3]; [7]): 8.7 ± 0.8 | Amount of dead fetuses (Wistar rats [3]; [7]): 0 | Amount of gestation female rats (Wistar rats [3]; [7]): 15 | Amount of implantation sites (Wistar rats [3]; [7]): 10.1 ± 1.1 | Amount of resorptions (Wistar rats [3]; [7]): 0.4 ± 0.2 | Amount of viable fetuses (Wistar rats [3]; [7]): 9.4 ± 1.0 | Amount of yellow bodies (Wistar rats [3]; [7]): 10.8 ± 0.8 | Carniocaudal size of fetus (Wistar rats [3]; [7]): 35 ± 1 mm | Fertility index (Wistar rats [3]; [7]): 85% | Fetus body weight (Wistar rats [3]; [7]): 3.5 ± 0.2 g | Gestation index (Wistar rats [3]; [7]): 88% | Post-implantation loss (Wistar rats [3]; [7]): 6.9% | Postnatal loss after 3 weeks (Wistar rats [3]; [7]): 2.6% | Pre-implantation loss (Wistar rats [3]; [7]): 6.5% | Weight of newborn baby rats (Wistar rats [3]; [7]): 6.4 ± 1.2 g | Dynamics of infant body weight, 1st week (Wistar rats [3]; [7]): 20.1 ± 0.9 g | Dynamics of infant body weight, 2nd week (Wistar rats [3]; [7]): 27.2 ± 1.5 g | Dynamics of infant body weight, 3rd week (Wistar rats [3]; [7]): 45.9 ± 1.9 g | Dynamics of infant body weight, 4th week (Wistar rats [3]; [7]): 61.9 ± 2.6 g
